Test results taken from patent publication US6525001B1, “Substituted pyrimidine and pyridine herbicides” (Mid-American Commercialization Corporation, priority 1997, dated 2003).

Tests used:
Format in all cases: in vivo
[1] = tested on: purple nutsedge (Cyperus rotundus); test: Test E pre-/postemergence/post directed; parameters: key: 0 is no injury; 100 is complete control
Summary of the method: (§1)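 Greenhouse pots; compound in non-phytotoxic solvent with surfactant, sprayed preemergence within one day of planting, postemergence at two to four leaf stage (three to twenty cm), or post directed to plant base and soil. Visual injury rated 13 to 21 days after application, 0 (none) to 100 (complete control).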

[2] = tested on: ivyleaf morningglory (Ipomoea hederacea); test: Test C; parameters: key: 0 was no effect; 100 was complete control; details: PREEMERGENCE
[3] = tested on: purple nutsedge (Cyperus rotundus); test: Test C; parameters: key: 0 was no effect; 100 was complete control; details: PREEMERGENCE
[4] = tested on: ladysthumb smartweed (Polygonum persicaria); test: Test C; details: PREEMERGENCE, Rate 70 g/ha
[5] = tested on: alexandergrass (Brachiaria plantaginea); test: Test E pre-/postemergence/post directed
Summary of the method: as §1

[6] = tested on: sandbur (Cenchrus echinatus); test: Test E pre-/postemergence/post directed
Summary of the method: as §1

[7] = tested on: common ragweed (Ambrosia elatior); test: Test E pre-/postemergence/post directed; details: POSTEMERGENCE
Summary of the method: as §1

[8] = tested on: large crabgrass (Digitaria sanguinalis); test: Test E pre-/postemergence/post directed
Summary of the method: as §1

[9] = tested on: surinam grass (Brachiaria decumbens); test: Test E pre-/postemergence/post directed
Summary of the method: as §1

[10] = tested on: bermudagrass (Cynodon dactylon); test: Test E pre-/postemergence/post directed
Summary of the method: as §1

[11] = tested on: itchgrass (Rottboellia exaltata); test: Test E pre-/postemergence/post directed
Summary of the method: as §1

[12] = tested on: common groundsel (Senecio vulgaris); test: Test E pre-/postemergence/post directed; details: POSTEMERGENCE
Summary of the method: as §1

[13] = tested on: johnson grass (Sorghum halepense); test: Test E pre-/postemergence/post directed
Summary of the method: as §1

[14] = tested on: Spanishneedles (Bidens bipinnata); test: Test E pre-/postemergence/post directed
Summary of the method: as §1

[15] = tested on: pitted morningglory (Ipomoea lacunosa); test: Test E pre-/postemergence/post directed; details: POSTEMERGENCE
Summary of the method: as §1

[16] = tested on: barnyardgrass (Echinochloa crus-galli); test: Test C; parameters: key: 0 was no effect; 100 was complete control; details: PREEMERGENCE
[17] = tested on: johnsongrass (Sorghum halepense); test: Test C; details: PREEMERGENCE
[18] = tested on: hairy beggarticks (Bidens pilosa); test: Test C; parameters: key: 0 was no effect; 100 was complete control; details: PREEMERGENCE
[19] = tested on: cocklebur (Xanthium strumarium); test: Test C; parameters: key: 0 was no effect; 100 was complete control; details: PREEMERGENCE
[20] = tested on: velvetleaf (Abutilon theophrasti); test: Test C; parameters: key: 0 was no effect; 100 was complete control; details: PREEMERGENCE
corn (Zea mays) = test: Test C; parameters: key: 0 was no effect; 100 was complete control; details: PREEMERGENCE

SMILES: Cc1cnc(-n2ccc(C(F)(F)F)n2)nc1Cc1cccc(C(F)(F)F)c1 [Example 2, 5-methyl-4-[[3-(trifluoromethyl)phenyl]methyl]-2-[3-(trifluoromethyl)-1H-pyrazol-1-yl]pyrimidine]
- Plant response rating, Purple nutsedge ([1]; POSTEMERGENCE, Rate 32 g/ha): 0
- Plant response rating, Purple nutsedge ([1]; POSTEMERGENCE, Rate 64 g/ha): 0
- Plant response rating, Purple nutsedge ([1]; POSTEMERGENCE, Rate 125 g/ha): 0
- Plant response rating, Purple nutsedge ([1]; POSTEMERGENCE, Rate 250 g/ha): 0
- Plant response rating, Purple nutsedge ([1]; POSTEMERGENCE, Rate 500 g/ha): 0
- Plant response rating, Purple nutsedge ([1]; PREEMERGENCE, Rate 32 g/ha): 0
- Plant response rating, Purple nutsedge ([1]; PREEMERGENCE, Rate 64 g/ha): 0
- Plant response rating, Purple nutsedge ([1]; PREEMERGENCE, Rate 125 g/ha): 0
- Plant response rating, Purple nutsedge ([1]; PREEMERGENCE, Rate 250 g/ha): 0
- Plant response rating, Purple nutsedge ([1]; PREEMERGENCE, Rate 500 g/ha): 0
- Plant response rating, I. morningglory ([2]; Rate 35 g/ha): 0
- Plant response rating, I. morningglory ([2]; Rate 70 g/ha): 5
- Plant response rating, I. morningglory ([2]; Rate 140 g/ha): 5
- Plant response rating, Purple nutsedge ([3]; Rate 35 g/ha): 0
- Plant response rating, Purple nutsedge ([3]; Rate 70 g/ha): 0
- Plant response rating, Purple nutsedge ([3]; Rate 140 g/ha): 0
- Plant response rating, Ladysthumb [4]: 30
- Plant response rating, Alexandergrass ([5]; POSTEMERGENCE, Rate 32 g/ha): 20
- Plant response rating, Alexandergrass ([5]; POSTEMERGENCE, Rate 64 g/ha): 30
- Plant response rating, Alexandergrass ([5]; POSTEMERGENCE, Rate 125 g/ha): 30
- Plant response rating, Alexandergrass ([5]; POSTEMERGENCE, Rate 250 g/ha): 80
- Plant response rating, Alexandergrass ([5]; POSTEMERGENCE, Rate 500 g/ha): 95
- Plant response rating, Alexandergrass ([5]; PREEMERGENCE, Rate 32 g/ha): 50
- Plant response rating, Alexandergrass ([5]; PREEMERGENCE, Rate 64 g/ha): 90
- Plant response rating, Sandbur ([6]; POSTEMERGENCE, Rate 64 g/ha): 10
- Plant response rating, Sandbur ([6]; POSTEMERGENCE, Rate 125 g/ha): 10
- Plant response rating, Sandbur ([6]; POSTEMERGENCE, Rate 250 g/ha): 50
- Plant response rating, Sandbur ([6]; POSTEMERGENCE, Rate 500 g/ha): 80
- Plant response rating, Sandbur ([6]; PREEMERGENCE, Rate 32 g/ha): 20
- Plant response rating, Sandbur ([6]; PREEMERGENCE, Rate 64 g/ha): 65
- Plant response rating, Sandbur ([6]; PREEMERGENCE, Rate 125 g/ha): 90
- Plant response rating, Com. ragweed ([7]; Rate 32 g/ha): 50
- Plant response rating, Com. ragweed ([7]; Rate 125 g/ha): 75
- Plant response rating, Com. ragweed ([7]; Rate 250 g/ha): 75
- Plant response rating, Com. ragweed ([7]; Rate 500 g/ha): 75
- Plant response rating, Large crabgrass ([8]; POSTEMERGENCE, Rate 32 g/ha): 35
- Plant response rating, Large crabgrass ([8]; POSTEMERGENCE, Rate 64 g/ha): 35
- Plant response rating, Large crabgrass ([8]; POSTEMERGENCE, Rate 125 g/ha): 75
- Plant response rating, Large crabgrass ([8]; POSTEMERGENCE, Rate 250 g/ha): 80
- Plant response rating, Large crabgrass ([8]; POSTEMERGENCE, Rate 500 g/ha): 90
- Plant response rating, Large crabgrass ([8]; PREEMERGENCE, Rate 32 g/ha): 98
- Plant response rating, Surinam grass ([9]; POSTEMERGENCE, Rate 32 g/ha): 35
- Plant response rating, Surinam grass ([9]; POSTEMERGENCE, Rate 64 g/ha): 50
- Plant response rating, Surinam grass ([9]; POSTEMERGENCE, Rate 125 g/ha): 50
- Plant response rating, Surinam grass ([9]; POSTEMERGENCE, Rate 250 g/ha): 70
- Plant response rating, Surinam grass ([9]; POSTEMERGENCE, Rate 500 g/ha): 80
- Plant response rating, Surinam grass ([9]; PREEMERGENCE, Rate 32 g/ha): 50
- Plant response rating, Surinam grass ([9]; PREEMERGENCE, Rate 64 g/ha): 90
- Plant response rating, Bermudagrass ([10]; POSTEMERGENCE, Rate 32 g/ha): 10
- Plant response rating, Bermudagrass ([10]; POSTEMERGENCE, Rate 64 g/ha): 20
- Plant response rating, Bermudagrass ([10]; POSTEMERGENCE, Rate 125 g/ha): 35
- Plant response rating, Bermudagrass ([10]; POSTEMERGENCE, Rate 250 g/ha): 50
- Plant response rating, Bermudagrass ([10]; POSTEMERGENCE, Rate 500 g/ha): 75
- Plant response rating, Bermudagrass ([10]; PREEMERGENCE, Rate 32 g/ha): 98
- Plant response rating, Itchgrass ([11]; POSTEMERGENCE, Rate 32 g/ha): 40
- Plant response rating, Itchgrass ([11]; POSTEMERGENCE, Rate 64 g/ha): 40
- Plant response rating, Itchgrass ([11]; POSTEMERGENCE, Rate 125 g/ha): 75
- Plant response rating, Itchgrass ([11]; POSTEMERGENCE, Rate 250 g/ha): 90
- Plant response rating, Itchgrass ([11]; POSTEMERGENCE, Rate 500 g/ha): 95
- Plant response rating, Itchgrass ([11]; PREEMERGENCE, Rate 32 g/ha): 70
- Plant response rating, Itchgrass ([11]; PREEMERGENCE, Rate 64 g/ha): 75
- Plant response rating, Itchgrass ([11]; PREEMERGENCE, Rate 125 g/ha): 75
- Plant response rating, Itchgrass ([11]; PREEMERGENCE, Rate 250 g/ha): 95
- Plant response rating, Com. groundsel ([12]; Rate 64 g/ha): 20
- Plant response rating, Com. groundsel ([12]; Rate 125 g/ha): 20
- Plant response rating, Com. groundsel ([12]; Rate 250 g/ha): 40
- Plant response rating, Com. groundsel ([12]; Rate 500 g/ha): 75
- Plant response rating, Johnsongrass ([13]; POSTEMERGENCE, Rate 32 g/ha): 10
- Plant response rating, Johnsongrass ([13]; POSTEMERGENCE, Rate 64 g/ha): 60
- Plant response rating, Johnsongrass ([13]; POSTEMERGENCE, Rate 125 g/ha): 60
- Plant response rating, Johnsongrass ([13]; POSTEMERGENCE, Rate 250 g/ha): 80
- Plant response rating, Johnsongrass ([13]; POSTEMERGENCE, Rate 500 g/ha): 95
- Plant response rating, Johnsongrass ([13]; PREEMERGENCE, Rate 32 g/ha): 65
- Plant response rating, Johnsongrass ([13]; PREEMERGENCE, Rate 64 g/ha): 98
- Plant response rating, Johnsongrass ([13]; PREEMERGENCE, Rate 125 g/ha): 85
- Plant response rating, Spanishneedles ([14]; POSTEMERGENCE, Rate 32 g/ha): 60
- Plant response rating, Spanishneedles ([14]; POSTEMERGENCE, Rate 64 g/ha): 60
- Plant response rating, Spanishneedles ([14]; POSTEMERGENCE, Rate 125 g/ha): 40
- Plant response rating, Spanishneedles ([14]; POSTEMERGENCE, Rate 500 g/ha): 70
- Plant response rating, Spanishneedles ([14]; PREEMERGENCE, Rate 32 g/ha): 80
- Plant response rating, P. morninglory ([15]; Rate 32 g/ha): 80
- Plant response rating, P. morninglory ([15]; Rate 64 g/ha): 80
- Plant response rating, P. morninglory ([15]; Rate 125 g/ha): 80
- Plant response rating, P. morninglory ([15]; Rate 250 g/ha): 90
- Plant response rating, P. morninglory ([15]; Rate 500 g/ha): 90
- Plant response rating, Barnyardgrass ([16]; Rate 35 g/ha): 0
- Plant response rating, Barnyardgrass ([16]; Rate 70 g/ha): 5
- Plant response rating, Barnyardgrass ([16]; Rate 140 g/ha): 30
- Plant response rating, Johnsongrass ([17]; Rate 35 g/ha): 5
- Plant response rating, Johnsongrass ([17]; Rate 70 g/ha): 5
- Plant response rating, Johnsongrass ([17]; Rate 140 g/ha): 60
- Plant response rating, H. beggarticks ([18]; Rate 35 g/ha): 40
- Plant response rating, H. beggarticks ([18]; Rate 70 g/ha): 40
- Plant response rating, H. beggarticks ([18]; Rate 140 g/ha): 100
- Plant response rating, Cocklebur ([19]; Rate 35 g/ha): 0
- Plant response rating, Cocklebur ([19]; Rate 140 g/ha): 10
- Plant response rating, Velvetleaf ([20]; Rate 35 g/ha): 0
- Plant response rating, Velvetleaf ([20]; Rate 70 g/ha): 5
- Plant response rating, Velvetleaf ([20]; Rate 140 g/ha): 50
- Plant response rating, Corn (corn (Zea mays); Rate 35 g/ha): 0
- Plant response rating, Corn (corn (Zea mays); Rate 70 g/ha): 0
- Plant response rating, Corn (corn (Zea mays); Rate 140 g/ha): 30
